{"source": "patent US9884048B2", "about": "“ERK inhibitors” (Merck Sharp & Dohme Corp., priority 2014, dated 2018)"}
{"target": "phosphorylated active hERK2 enzyme (Homo sapiens (Human), UniProt P28482)", "sequence (P28482 whole entry)": "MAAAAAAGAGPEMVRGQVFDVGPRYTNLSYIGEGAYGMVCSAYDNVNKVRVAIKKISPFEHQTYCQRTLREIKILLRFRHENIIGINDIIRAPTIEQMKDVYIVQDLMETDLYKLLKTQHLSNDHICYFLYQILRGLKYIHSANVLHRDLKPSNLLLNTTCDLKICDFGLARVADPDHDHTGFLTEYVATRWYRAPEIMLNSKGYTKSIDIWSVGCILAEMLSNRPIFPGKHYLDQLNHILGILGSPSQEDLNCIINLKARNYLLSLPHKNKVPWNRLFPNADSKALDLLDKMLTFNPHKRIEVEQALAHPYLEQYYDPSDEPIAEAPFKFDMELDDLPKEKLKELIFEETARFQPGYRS", "conditions": "read-out: ERK2 IC50; IMAP-FP assay; 0.5 nM hERK2, 30 μM ATP; 10 point titration, 3 μM starting concentration", "units": {"IC50": "nM"}}
{"smiles": "Cc1cc(-n2ncc3cc(NC(=O)N[C@H](C)c4ccccn4)ncc32)ccn1", "note": "[Example 204, 1-[1-(2-methylpyridin-4-yl)-1H-pyrazolo[3,4-c]pyridin-5-yl]-3-[(1R)-1-pyridin-2-ylethyl]urea]", "IC50": 7.84}
{"smiles": "C[C@@H](NC(=O)Nc1cc2cnn(-c3cnn(C)c3)c2cn1)c1ccc(F)c(Cl)c1", "note": "[Example 205, (R)-1-(1-(3-chloro-4-fluorophenyl)ethyl)-3-(1-(1-methyl-1H-pyrazol-4-yl)-1H-pyrazolo[3,4-c]pyridin-5-yl)urea]", "IC50": 12.1}
{"smiles": "Cn1ncc2ccc(-n3ncc4cc(NC(=O)N[C@@H](c5ccccc5)C(C)(C)O)ncc43)cc21", "note": "[Example 206, 1-[(1S)-2-hydroxy-2-methyl-1-phenylpropyl]-3-[1-(1-methyl-1H-indazol-6-yl)-1H-pyrazolo[3,4-c]pyridin-5-yl]urea]", "IC50": 0.99}
{"smiles": "Cn1cc2cc(-n3ncc4cc(NC(=O)N[C@@H](c5ccccc5)C(C)(C)O)ncc43)ccc2n1", "note": "[Example 207, 1-[(1S)-2-hydroxy-2-methyl-1-phenylpropyl]-3[-1-(2-methyl-2H-indazol-5-yl)-1H-pyrazolo[3,4-c]pyridin-5-yl]urea]", "IC50": 0.33}
{"smiles": "CN1C[C@H](NC(=O)Nc2cc3cnn(-c4ccc(F)cc4)c3cn2)[C@@H](c2ccccc2)C1", "note": "[Example 208, 1-[1-(4-fluorophenyl)-1H-pyrazolo[3,4-c]pyridin-5-yl]-3-[(3R,4S)-1-methyl-4-phenylpyrrolidin-3-yl]urea]", "IC50": 0.579}
{"smiles": "COC[C@H](NC(=O)Nc1cc2cnn(-c3ccnc(C)c3)c2cn1)c1ccccn1", "note": "[Example 209, 1-[(1R)-2-methoxy-1-pyridin-2-ylethyl]-3-[1-(2-methylpyridin-4-yl)-1H-pyrazolo[3,4-c]pyridin-5-yl]urea]", "IC50": 24.5}
{"smiles": "COC[C@@H](NC(=O)Nc1cc2cnn(-c3ccnc(C)c3)c2cn1)c1ccccn1", "note": "[Example 210, 1-[(1S)-2-methoxy-1-pyridin-2-ylethyl]-3-[1-(2-methylpyridin-4-yl)-1H-pyrazolo[3,4-c]pyridin-5-yl]urea]", "IC50": 745}
{"smiles": "Cc1cncc(-n2ncc3cc(NC(=O)N[C@H](C)c4ccccc4)ncc32)n1", "note": "[Example 211, 1-[1-(6-methylpyrazin-2-yl)-1H-pyrazolo[3,4-c]pyridin-5-yl]-3-[(1R)-1-phenylethyl]urea]", "IC50": 549}
{"smiles": "Cc1cnc(-n2ncc3cc(NC(=O)N[C@H](C)c4ccccc4)ncc32)cn1", "note": "[Example 212, 1-[1-(5-methylpyrazin-2-yl)-1H-pyrazolo[3,4-c]pyridin-5-yl]-3-[(1R)-1-phenylethyl]urea]", "IC50": 521}
{"smiles": "Cc1ccc(-n2ncc3cc(NC(=O)N[C@H](C)c4ccccc4)ncc32)nn1", "note": "[Example 213, 1-[1-(6-methylpyridazin-3-yl)-1H-pyrazolo[3,4-c]pyridin-5-yl]-3-[(1R)-1-phenylethyl]urea]", "IC50": 208}
{"smiles": "Cc1cc(-n2ncc3cc(NC(=O)NCc4ccc(F)c(Cl)c4)ncc32)ccn1", "note": "[Example 214, 1-(3-chloro-4-fluorobenzyl)-3-[1-(2-methylpyridin-4-yl)-1H-pyrazolo[3,4-c]pyridin-5-yl]urea]", "IC50": 4.05}
{"smiles": "Cc1cc(-n2ncc3cc(NC(=O)NCc4cccc(Cl)c4)ncc32)ccn1", "note": "[Example 215, 1-(3-chlorobenzyl)-3-[1-(2-methylpyridin-4-yl)-1H-pyrazolo[3,4-c]pyridin-5-yl]urea]", "IC50": 5.04}
{"smiles": "Cn1cc(-n2ncc3cc(NC(=O)NCc4cccc(Cl)c4)ncc32)cn1", "note": "[Example 216, 1-(3-chlorobenzyl)-3-[1-(1-methyl-1H-pyrazol-4-yl)-1H-pyrazolo[3,4-c]pyridin-5-yl]urea]", "IC50": 15.7}
{"smiles": "C[C@@H](NC(=O)Nc1cc2cnn(-c3cnn(C)c3)c2cn1)c1cccc(Cl)c1", "note": "[Example 217, 1-[(1R)-1-(3-chlorophenyl)ethyl]-3-[1-(1-methyl-1H-pyrazol-4-yl)-1H-pyrazolo[3,4-c]pyridin-5-yl]urea]", "IC50": 5.45}
{"smiles": "Cn1cc(-n2ncc3cc(NC(=O)NCc4ccc(F)c(Cl)c4)ncc32)cn1", "note": "[Example 218, 1-(3-chloro-4-fluorobenzyl)-3-[1-(1-methyl-1H-pyrazol-4-yl)-1H-pyrazolo[3,4-c]pyridin-5-yl]urea]", "IC50": 20.8}
{"smiles": "Cc1cc(-n2ncc3cc(NC(=O)N[C@H](C)c4ccc(F)c(Cl)c4)ncc32)ccn1", "note": "[Example 219, 1-[(1R)-1-(3-chloro-4-fluorophenyl)ethyl]-3-[1-(2-methylpyridin-4-yl)-1H-pyrazolo[3,4-c]pyridin-5-yl]urea]", "IC50": 2.85}
{"smiles": "Cc1cc(-n2ncc3cc(NC(=O)N[C@H](C)c4ccc(Cl)c(Cl)c4)ncc32)ccn1", "note": "[Example 220, 1-[(1R)-1-(3,4-dichlorophenyl)ethyl]-3-[1-(2-methylpyridin-4-yl)-1H-pyrazolo[3,4-c]pyridin-5-yl]urea]", "IC50": 3.33}
{"smiles": "C[C@H](NC(=O)Nc1cc2cnn(-c3ccc(F)cc3)c2cn1)c1ccccn1", "note": "[Example 221, 1-[1-(4-fluorophenyl)-1H-pyrazolo[3,4-c]pyridin-5-yl]-3-[(1S)-1-pyridin-2-ylethyl]urea]", "IC50": 1790}
{"smiles": "C[C@@H](NC(=O)Nc1cc2cnn(-c3ccc(F)cc3)c2cn1)c1ccccn1", "note": "[Example 222, 1-[1-(4-fluorophenyl)-1H-pyrazolo[3,4-c]pyridin-5-yl]-3-[(1R)-1-pyridin-2-ylethyl]urea]", "IC50": 7.53}
{"smiles": "Cc1cc(-n2ncc3cc(NC(=O)N[C@H](C)c4ccc(F)cc4)ncc32)ccn1", "note": "[Example 223, (R)-1-(1-(4-fluorophenyl)ethyl)-3-(1-(2-methylpyridin-4-yl)-1H-pyrazolo[3,4-c]pyridin-5-yl)urea]", "IC50": 2.28}
{"smiles": "Cc1cc(-n2ncc3c(F)c(NC(=O)N[C@H](C)c4ccccc4)ncc32)ccn1", "note": "[Example 224, (R)-1-(4-Fluoro-1-(2-methylpyridin-4-yl)-1H-pyrazolo[3,4-c]pyridin-5-yl)-3-(1-phenylethyl)urea]", "IC50": 8.26}
{"smiles": "C[C@@H](NC(=O)Nc1cc2cnn(C)c2cn1)c1ccccc1", "note": "[Example 225, (R)-1-(1-methyl-1H-pyrazolo[3,4-c]pyridin-5-yl)-3-(1-phenylethyl)urea]", "IC50": 920}
{"smiles": "Cn1ncc2cc(NC(=O)N[C@@H](c3ccccc3)C(C)(C)O)nc(CO)c21", "note": "[Example 226, 1-[7-(hydroxymethyl)-1-methyl-1H-pyrazolo[3,4-c]pyridin-5-yl]-3-[(1S)-2-hydroxy-2-methyl-1-phenylpropyl]urea]", "IC50": 69.3}
{"smiles": "C[C@@H](O)[C@@H](NC(=O)Nc1cc2cn[nH]c2cn1)c1ccccc1", "note": "[Example 227, 1-((1S,2R)-2-Hydroxy-1-phenylpropyl)-3-(1H-pyrazolo[3,4-c]pyridin-5-yl)urea]", "IC50": 134}
{"smiles": "Cn1ncc2cc(NC(=O)N[C@@H](c3ccccc3)C(C)(C)O)ncc21", "note": "[Example 228, 1-[(1S)-2-hydroxy-2-methyl-1-phenylpropyl]-3-(1-methyl-1H-pyrazolo[3,4-c]pyridin-5-yl)urea]", "IC50": 36.9}
{"smiles": "C[C@@H](NC(=O)Nc1cc2cn[nH]c2c(CO)n1)c1ccccc1", "note": "[Example 229, (R)-1-(7-(hydroxymethyl)-1H-pyrazolo[3,4-c]pyridin-5-yl)-3-(1-phenylethyl)urea]", "IC50": 41}
{"smiles": "CC(C)(O)[C@@H](NC(=O)Nc1cc2cn[nH]c2cn1)c1ccccc1", "note": "[Example 230, (S)-1-(2-hydroxy-2-methyl-1-phenylpropyl)-3-(1H-pyrazolo[3,4-c]pyridin-5-yl)urea]", "IC50": 70}
{"smiles": "CCNC(=O)n1ncc2cc(NC(=O)N[C@H](C)c3ccccc3)ncc21", "note": "[Example 231, N-ethyl-5-({[(1R)-1-phenylethyl]carbamoyl}amino)-1H-pyrazolo[3,4-c]pyridine-1-carboxamide]", "IC50": 64.1}
{"smiles": "C[C@@H](NC(=O)Nc1cc2cnn(C)c2cn1)c1ccc(F)cc1", "note": "[Example 232, 1-[(1R)-1-(4-fluorophenyl)ethyl]-3-(1-methyl-1H-pyrazolo[3,4-c]pyridin-5-yl)urea]", "IC50": 579}
{"smiles": "C[C@@H](NC(=O)Nc1cc2cnn(C3CCNC(=O)C3)c2cn1)c1ccc(F)cc1", "note": "(stereo partly drawn) [Example 233, 1-[(1R)-1-(4-fluorophenyl)ethyl]-3-[1-(2-oxopiperidin-4-yl)-1H-pyrazolo[3,4-c]pyridin-5-yl]urea]", "IC50": 1220}
{"smiles": "CC(C)(C)OC(=O)N1CCc2cnc(-n3ncc4cc(NC(=O)N[C@@H](c5ccc(F)cc5)C(C)(C)O)ncc43)nc2C1", "note": "[Example 234, tert-butyl 2-[5-({[(1S)-1-(4-fluorophenyl)-2-hydroxy-2-methylpropyl]carbamoyl}amino)-1H-pyrazolo[3,4-c]pyridin-1-yl]-5,8-dihydropyrido[3,4-d]pyrimidine-7(6H)-carboxylate]", "IC50": 1810}
{"smiles": "COCCCn1ncc2cc(NC(=O)N[C@H](C)c3ccccc3)ncc21", "note": "[Example 235, 1-[1-(3-methoxypropyl)-1H-pyrazolo[3,4-c]pyridin-5-yl]-3-[(1R)-1-phenylethyl]urea]", "IC50": 1520}
{"smiles": "Cn1ncc2cc(NC(=O)NC3CCCN(Cc4c(F)cccc4F)C3)ncc21", "note": "(stereo not shown) [Example 236, 1-[1-(2,6-difluorobenzyl)piperidin-3-yl]-3-(1-methyl-1H-pyrazolo[3,4-c]pyridin-5-yl)urea]", "IC50": 531}
{"smiles": "COC[C@@H](NC(=O)Nc1cc2cnn(C)c2cn1)c1ccccc1", "note": "[Example 237, 1-[(1S)-2-methoxy-1-phenylethyl]-3-(1-methyl-1H-pyrazolo[3,4-c]pyridin-5-yl)urea]", "IC50": 882}
{"smiles": "C[C@@H](NC(=O)Nc1cc2cnn(C3CCOCC3)c2cn1)c1ccccc1", "note": "[Example 238, 1-[(1R)-1-phenylethyl]-3-[1-(tetrahydro-2H-pyran-4-yl)-1H-pyrazolo[3,4-c]pyridin-5-yl]urea]", "IC50": 147}
{"smiles": "COC[C@@H](NC(=O)Nc1cc2cnn(C3CCNC(C)C3)c2cn1)c1ccccc1", "note": "(stereo partly drawn) [Example 239, 1-[(1S)-2-methoxy-1-phenylethyl]-3-[1-(2-methylpiperidin-4-yl)-1H-pyrazolo[3,4-c]pyridin-5-yl]urea]", "IC50": 2180}
{"smiles": "C[C@@H](NC(=O)Nc1cc2cnn(-c3ccc(F)cc3)c2c(CO)n1)c1ccccc1", "note": "[Example 240, 1-[1-(4-fluorophenyl)-7-(hydroxymethyl)-1H-pyrazolo[3,4-c]pyridin-5-yl]-3-[(1R)-1-phenylethyl]urea]", "IC50": 40.1}
